Patent publication US20150306002A1, “3-HYDROXY-4-OXO-4H-PYRAN- OR 3-HYDROXY-4-OXO-1,4-DIHYDROPYRIDINE DERIVATIVES AS PROTEIN-ADHESIVE ACTIVE SUBSTANCES” (MERCK PATENT GMBH, priority 2012, published 2015)

Tests used:
[1] = Investigation in the Liquidskin model (L*-a*-b* values, UV/VIS spectrometer); conditions: RT, 3 hrs
Procedure: 1 mmol of the substance according to Example 1 (2-methyl-4-oxo-4H-pyran-3-yl 2-(4-dibutylamino-2-hydroxybenzoyl)benzoate) is dissolved in 94 ml of ethylene glycol and 6 ml of water (potassium hydrogenphthalate-buffered, pH=4) with 1 mmol of DL-lysine and stirred at RT for 3 hrs. (=Liquidskin model). The L*-a*-b* values of this solution are subsequently measured using a UV/VIS spectrometer (Varian Cary-100) and compared with the starting values.

[2] = Determination of the protein affinity in the lysine model (HPTLC); conditions: 10 mg in 5 ml THF made up to 10 ml with lysine solution (200 mg/l water), 35° C., HPTLC detection at 254 nm and 366 nm; for reaction with lysine in a Maillard reaction / detectability of starting substance after 1 h: sample after 1 h
Procedure: In each case, 10 mg of the substances according to Example 1 and Example 2 are weighed out into a 10 ml volumetric flask and dissolved in 5 ml of tetrahydrofuran (THF). The volumetric flask is then made up to the mark with a lysine solution in distilled water. The concentration of the lysine solution is 200 mg/I of water. The solution is stirred in the volumetric flask at 35° C. for 24 h. Samples are taken after 1 h and after 24 h. 5 μl of each of these samples are pipetted onto the start zone of an HPTLC silica gel 60 […] plate (Merck Art. 1.05628) using a micropipette. For development of the HPTLC plate, the eluent consisting of THF/heptane in the ratio 75/25 containing 0.1 vol % of formic acid is used. After development, detection is carried out at 254 nm and 366 nm in a CAMAG ATS4, and the Rf values are determined.

[3] = 1 mmol substance + 1 mmol DL-lysine in 94 ml ethylene glycol and 6 ml water (pH=4), compared with starting values

| Compound | delta L* [1, 3] | delta a* [1, 3] | delta b* [1, 3] | colour change of lysine ([1]; Liquidskin model) | reaction with lysine in a Maillard reaction / detectability of starting substance after 1 h [2] | reaction with lysine in a Maillard reaction / detectability of starting substance after 24 h ([2]; sample after 24 h) |
| --- | --- | --- | --- | --- | --- | --- |
| CCCCN(CCCC)c1ccc(C(=O)c2ccccc2C(=O)Oc2c(C)occc2=O)c(O)c1 [Example 1, 2-methyl-4-oxo-4H-pyran-3-yl 2-(4-dibutylamino-2-hydroxybenzoyl)benzoate] | −4.07 | −2.75 | +7.83 | exhibits a colour change of lysine | completely reacted with lysine |  |
| COc1ccc(/C=C/C(=O)Oc2c(C)occc2=O)cc1 [Example 2, 2-methyl-4-oxo-4H-pyran-3-yl 2-(E)-3-(4-methoxyphenyl)acrylate] |  |  |  |  | can still be detected | reaction is complete |
